Values joined by “and” are separate entries in the source; they are usually repeats but may differ in a detail not shown here. Equal values may be shown once. Read-outs that look alike come from different tables or passages of the source.

One assay concerns Enterococcus faecalis. Put plainly: MIC determination (A600 after 24 hours). As to conditions: for MIC: Enterococcus faecalis.
For assay [1], the system named is Mycobacterium tuberculosis. The assay can be described thus: Killing of M. tuberculosis at acidic pH plus or minus nitrite (CFU counts). Particulars: pH 5.5 or pH 4.5, plus or minus NaNO2, 4 days, FIG. 8.
Description: In vitro, RNI can be generated under physiologically relevant conditions by provision of nitrite at a mildly acidified pH. During infection, Mtb resides chiefly in the phagosome of macrophages, where the pH is ˜6 in immunologically non-activated cells and can fall to ˜4.5 in those that have been activated by interferon-γ. Activated macrophages produce RNI, the most abundant of which is the accumulating autoxidation product of NO, nitrite (NO2^−). In the present assay, the intraphagosomal milieu of moderately activated macrophages was partially mimicked by culturing mycobacteria at pH 5.5 with nitrite. […] At pH 5.5, 0.5 mM nitrite generates an amount of NO no greater than that released by 3×10^5 activated macrophages in 0.5 mL in 24 hours. In the present assay pH 5.5, with or without 0.5 mM nitrite, was used.
M. tuberculosis was grown in 7H9+0.2% glycerol+0.05% Tween-80+10% ADN, pH 6.6. CFU were enumerated on 7H11 agar plates with 10% OADC enrichment. Mid-log cultures (A580 0.8-1.0) were prepared as single cell suspensions in 7H9 at pH 5.5 or pH 4.5 and diluted to 0.1 (A580). Inoculum was determined by CFU. Bacteria were incubated with compounds plus or minus 0.5 mM NaNO2 (pH 5.5) or 0.05 NaNO2 (pH 4.5) in 96 well plates in 200 μl for 4 days and plated for CFU counts after serial dilution in 7H9, pH 6.6.
The test system of a further assay is bacteria and yeast. As to conditions: 10^4-10^5 CFU/mL inoculum.
For assay [2], the system named is Mycobacterium bovis var. Bacille Calmette Guerin (BCG). The class given is cell-based. Particulars: pH 5.5 or pH 4.5, plus or minus NaNO2, 4 days, CFU; FIGS. 6 and 7.
In a further assay the target is T1, Mtb's PDH (Mycobacterium tuberculosis, UniProt P9WIS7).
T1 sequence (P9WIS7 1-553): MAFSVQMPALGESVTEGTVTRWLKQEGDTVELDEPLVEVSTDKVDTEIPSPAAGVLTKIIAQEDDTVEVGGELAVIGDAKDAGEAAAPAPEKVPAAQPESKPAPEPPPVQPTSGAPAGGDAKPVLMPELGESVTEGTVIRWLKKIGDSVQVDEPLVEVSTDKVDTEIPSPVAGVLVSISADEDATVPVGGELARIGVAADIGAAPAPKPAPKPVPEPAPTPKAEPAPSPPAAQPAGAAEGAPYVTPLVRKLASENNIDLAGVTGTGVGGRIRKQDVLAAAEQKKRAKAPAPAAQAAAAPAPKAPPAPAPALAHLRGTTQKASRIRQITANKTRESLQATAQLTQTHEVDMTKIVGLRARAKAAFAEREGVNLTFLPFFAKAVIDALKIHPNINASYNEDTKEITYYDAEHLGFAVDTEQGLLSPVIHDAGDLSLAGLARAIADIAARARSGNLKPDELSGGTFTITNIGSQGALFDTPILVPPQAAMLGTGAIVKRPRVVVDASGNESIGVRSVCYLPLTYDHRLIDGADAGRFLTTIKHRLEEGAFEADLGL
Put plainly: PDH assay with Lpd, DlaT and AceE (NADH formation at 340 nm). Particulars: preincubation at room temperature, remaining activity over time; FIG. 4. The class given is biochemical. As for the experimental part: Reaction mixtures containing 200 nM Lpd, 350 nM DlaT, 200 nM AceE with or without 1 mM NAD+, 1 mM pyruvate, […] and […] D155931 were preincubated at room temperature and […] tested for remaining activity over time by PDH assay.

The target in assay [3] is T2, dihydrolipoamide acyltransferase (DlaT) (Mycobacterium tuberculosis, UniProt P9WIS7).
T2 sequence (P9WIS7 1-553): T1 sequence (P9WIS7 1-553)
The assay can be described thus: DlaT inhibition (Dlat IC50); DTNB peroxidase assay with Lpd, DlaT and AhpD. The format is biochemical.

For a further assay, the system named is Staphylococcus aureus. The assay can be described thus: MIC determination (A600 after 24 hours). Particulars: for MIC: Staphylococcus aureus, 10^4-10^5 CFU/mL inoculum.
Assay [4] relates to PDH complex from porcine heart. Put plainly: PDH assay with porcine heart PDH complex. As to conditions: increasing concentrations up the limit of its solubility; FIG. 5.

Protocol for Enterococcus faecalis: (§1) Bacteria were grown to mid-logarithmic phase, diluted to A600=0.1 and inoculated in 200 μl in 96-well plates in the presence of serial dilutions of compounds or vehicle control (DMSO). MICs (minimal concentrations that prevented bacterial growth) were determined at A600 after 24 hours incubation at 37° C.
Protocol for Staphylococcus aureus: as §1
Protocol for bacteria and yeast: as §1

On to `O=C(O)c1cccc(N2C(=O)C(=Cc3ccc(-c4ccccc4Cl)o3)SC2=S)c1` (single isomer, unassigned) [Mycopyrin 5, 3-[5[[5-(2-chlorophenyl)-2-furanyl]methylene]-4-oxo-2-thioxo-3-thiazolidinyl]benzoic acid], for which the MIC against Enterococcus faecalis (pH 5.5) was 5 µM and 2.2 µg/mL; in the assay with Enterococcus faecalis (pH 6.6), > 50 µM and > 22 µg/mL; in the assay on bacteria and yeast (Escherichia coli, pH 5.5), >50 μM and >22 μg/ml; in the assay on bacteria and yeast (Escherichia coli, pH 6.6), >50 μM and >22 μg/ml; against bacteria and yeast (Pseudomonas aeruginosa, pH 5.5), >50 μM and >22 μg/ml; against bacteria and yeast (Pseudomonas aeruginosa, pH 6.6) it was >50 μM and >22 μg/ml. For the same molecule, the MIC against Staphylococcus aureus (pH 5.5, Staphylococcus aureus (brain heart infusion), pH 5.5) is 5 µM and 2.2 µg/mL; against Staphylococcus aureus (pH 5.5, Staphylococcus aureus (nutrient broth), pH 5.5) it was 1 µM and 0.43 µg/mL; against Staphylococcus aureus (pH 6.6, Staphylococcus aureus (brain heart infusion), pH 6.6), > 50 µM and > 22 µg/mL; in the assay on Staphylococcus aureus (pH 6.6, Staphylococcus aureus (nutrient broth), pH 6.6), 2.5 µM and 1.1 µg/mL. Besides, the “killing of Enterococcus faecalis” value in the assay on Enterococcus faecalis (Table 22) is recorded as “kills”. In addition, the “bactericidal activity to Mycobacterium tuberculosis” value in assay [1] is reported as “bactericidal”. For the same molecule, the “bactericidal activity to M. bovis BCG” value in assay [2] is listed as “bactericidal”. For the same molecule, the “type of inhibition of Mtb's PDH” value on Mtb's PDH is “time-dependent, substrate-independent inhibitor”. Besides, the IC50 in assay [3] (Dlat IC50 category, Table 1, Compounds A1 to A294) lay in the range of 11 to 40 µM. In addition, the “reversibility of DlaT inhibition” value in assay [3] (in presence of NADH, preincubation at room temperature, remaining activity over time, FIG. 3) is “irreversible inhibitor”. Besides, the “killing of Staphylococcus aureus” value in the assay on Staphylococcus aureus (Table 22) was “kills”. The “inhibition of porcine PDH” value in assay [4] is recorded as “does not inhibit”.

A word on the MIC: it is the least concentration at which growth counts as inhibited. High values mean a need for much substance, low ones inhibition by little substance. One may read the IC50 as the concentration needed to halve the response being measured. A lower IC50 goes with greater potency in that assay.
